The target in assay [1] is Photoreceptor-specific nuclear receptor (Homo sapiens, UniProt Q9Y5X4). Format: functional.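 Note: potency for compounds that break the NR2E3 corepressor complex and count as activators.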
Assay [2] has as its target Peroxisome proliferator-activated receptor gamma/Nuclear receptor corepressor 2 (Homo sapiens, UniProt P37231+Q9Y618). It counts as functional.
A further assay concerns the target T1, Coagulation factor XII (Homo sapiens, UniProt P00748).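 Note: activated factor XIIa alpha cleaving a fluorogenic AMC peptide substrate; inhibitor potency from loss of enzyme activity.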
T1 sequence (P00748 whole entry): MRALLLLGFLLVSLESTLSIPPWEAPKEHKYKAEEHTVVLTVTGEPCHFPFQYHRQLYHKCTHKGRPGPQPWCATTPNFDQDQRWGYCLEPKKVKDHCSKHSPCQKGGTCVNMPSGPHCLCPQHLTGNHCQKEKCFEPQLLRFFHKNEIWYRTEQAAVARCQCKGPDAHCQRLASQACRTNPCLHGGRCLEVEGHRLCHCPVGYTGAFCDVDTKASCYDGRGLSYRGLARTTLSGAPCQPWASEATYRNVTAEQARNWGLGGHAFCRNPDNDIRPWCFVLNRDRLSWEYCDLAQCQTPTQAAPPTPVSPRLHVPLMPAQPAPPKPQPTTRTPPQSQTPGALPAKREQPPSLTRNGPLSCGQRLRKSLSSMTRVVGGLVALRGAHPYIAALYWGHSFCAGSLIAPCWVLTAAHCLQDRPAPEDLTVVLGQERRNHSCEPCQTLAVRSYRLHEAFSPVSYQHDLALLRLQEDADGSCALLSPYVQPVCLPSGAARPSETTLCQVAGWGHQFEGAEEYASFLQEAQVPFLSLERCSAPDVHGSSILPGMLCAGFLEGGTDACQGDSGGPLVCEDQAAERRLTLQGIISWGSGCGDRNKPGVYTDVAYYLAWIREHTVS
It counts as functional.

Assay [3] concerns the target T2, RNA-binding protein pos-1 (Caenorhabditis elegans, UniProt G5EF15).
T2 sequence (G5EF15 whole entry): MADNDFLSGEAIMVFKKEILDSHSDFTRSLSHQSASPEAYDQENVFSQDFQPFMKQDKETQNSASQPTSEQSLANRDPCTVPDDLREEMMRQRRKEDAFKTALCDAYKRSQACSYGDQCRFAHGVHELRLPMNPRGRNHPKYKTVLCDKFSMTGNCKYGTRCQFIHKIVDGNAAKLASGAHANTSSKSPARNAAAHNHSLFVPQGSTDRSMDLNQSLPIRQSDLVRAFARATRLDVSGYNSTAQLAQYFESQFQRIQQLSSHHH
The experiment in a line: disruptors of C. elegans POS-1 RNA interaction – biochemical, fluorescence polarization, dose response (AID 1964).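 Note: purified POS-1 fused to maltose binding protein made in E. coli; potency of compounds blocking POS-1 binding to fluorescent RNA.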

Assay [4] concerns Streptococcus sp. 'group A'. The experiment in a line: Streptococcus pyogenes SK(-)GAS viability under kanamycin – luminescence, BacTiterGlo, confirmation, counter-screen for streptokinase expression inhibitor project, dose response (AID 1900). It counts as functional, organism-based.
Assay [5] addresses T3, Zinc finger protein mex-5 (Caenorhabditis elegans, UniProt Q9XUB2).
T3 sequence (Q9XUB2 whole entry): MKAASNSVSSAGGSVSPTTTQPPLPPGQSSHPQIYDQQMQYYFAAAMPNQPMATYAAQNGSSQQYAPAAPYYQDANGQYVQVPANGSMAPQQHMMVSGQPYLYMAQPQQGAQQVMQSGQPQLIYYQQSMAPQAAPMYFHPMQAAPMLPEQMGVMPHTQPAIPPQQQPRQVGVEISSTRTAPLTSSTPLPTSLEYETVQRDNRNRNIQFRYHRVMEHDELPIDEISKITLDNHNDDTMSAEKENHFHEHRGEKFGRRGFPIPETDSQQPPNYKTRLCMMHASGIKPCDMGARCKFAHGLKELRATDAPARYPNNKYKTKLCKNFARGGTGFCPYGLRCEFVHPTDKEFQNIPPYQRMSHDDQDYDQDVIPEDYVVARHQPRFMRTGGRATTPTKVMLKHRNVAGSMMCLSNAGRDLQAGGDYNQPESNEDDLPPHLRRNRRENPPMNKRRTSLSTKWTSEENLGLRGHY
The experiment in a line: potency of MEX-5 RNA-binding blockers – biochemical, C. elegans, fluorescence polarization, dose response (AID 1960).

In another assay the target is T4, Streptokinase A (Streptococcus pyogenes serotype M1, UniProt P10520).
T4 sequence (P10520 whole entry): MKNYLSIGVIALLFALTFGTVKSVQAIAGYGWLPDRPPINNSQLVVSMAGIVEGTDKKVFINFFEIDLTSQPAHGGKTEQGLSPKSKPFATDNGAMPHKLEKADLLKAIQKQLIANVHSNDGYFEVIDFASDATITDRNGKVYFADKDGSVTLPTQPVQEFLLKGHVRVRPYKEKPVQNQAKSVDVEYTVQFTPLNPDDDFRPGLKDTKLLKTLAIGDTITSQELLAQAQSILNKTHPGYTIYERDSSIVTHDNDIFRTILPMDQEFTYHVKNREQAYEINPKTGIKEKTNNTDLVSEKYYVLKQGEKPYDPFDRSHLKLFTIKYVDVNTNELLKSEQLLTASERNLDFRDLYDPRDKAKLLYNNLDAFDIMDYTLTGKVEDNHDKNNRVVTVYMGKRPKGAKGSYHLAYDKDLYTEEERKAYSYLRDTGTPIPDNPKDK
The experiment in a line: viability-normalized secreted streptokinase activity reduction – plasminogen activation absorbance, OD405, dose response (AID 1914).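 Note: secreted streptokinase activity via plasminogen activation per viability signal from cell pellet.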 It counts as functional, Streptococcus pyogenes M1 GAS.

A further assay has as its system Streptococcus. The experiment in a line: GAS UMAA2166 growth inhibition – luminescence, BacTiterGlo, counter-screen for streptokinase expression inhibitor project, dose response (AID 1915).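 Note: potency for reduction of bacterial viability or growth.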 Format: functional, organism-based.
Assay [6] addresses Neurotensin receptor type 1 (Homo sapiens, UniProt P30989). Format: functional.
The target of assay [7] is E3 ubiquitin-protein ligase XIAP (Homo sapiens, UniProt P98170). The assay is described as follows: Counter Screen using XIAP-Bir3 for Chemical Antagonists of Bir1/2 domains of IAP-family anti-apoptotic proteins. [Related pubchem assays (depositor defined):AID1018, AID1449, AID1514, AID1638, AID1749, AID1750, AID488957, AID488963].
E3 ubiquitin-protein ligase XIAP, sequence (P98170 whole entry): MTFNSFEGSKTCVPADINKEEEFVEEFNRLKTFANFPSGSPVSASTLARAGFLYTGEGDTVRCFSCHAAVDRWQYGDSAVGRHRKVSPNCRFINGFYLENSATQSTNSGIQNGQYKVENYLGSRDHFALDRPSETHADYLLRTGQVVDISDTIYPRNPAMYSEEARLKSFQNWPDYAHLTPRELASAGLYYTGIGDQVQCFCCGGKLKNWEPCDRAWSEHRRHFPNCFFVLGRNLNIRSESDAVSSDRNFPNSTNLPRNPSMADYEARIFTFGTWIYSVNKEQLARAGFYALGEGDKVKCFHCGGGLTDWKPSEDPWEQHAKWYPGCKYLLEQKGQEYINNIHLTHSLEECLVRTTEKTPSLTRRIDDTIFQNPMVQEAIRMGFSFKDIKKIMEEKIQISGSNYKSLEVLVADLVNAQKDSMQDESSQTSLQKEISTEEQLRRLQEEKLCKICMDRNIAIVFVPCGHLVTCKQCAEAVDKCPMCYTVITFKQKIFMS
The target in assay [8] is DNA dC->dU-editing enzyme APOBEC-3A (Homo sapiens, UniProt P31941). The assay is described as follows: Dose Response confirmation of small molecule APOBEC3A DNA Deaminase Inhibitors via a fluorescence-based single-stranded DNA deaminase assay. [Related pubchem assays (depositor defined):AID493011, AID493024]. Format: functional.
DNA dC->dU-editing enzyme APOBEC-3A, sequence (P31941 whole entry, the tested form may be a part): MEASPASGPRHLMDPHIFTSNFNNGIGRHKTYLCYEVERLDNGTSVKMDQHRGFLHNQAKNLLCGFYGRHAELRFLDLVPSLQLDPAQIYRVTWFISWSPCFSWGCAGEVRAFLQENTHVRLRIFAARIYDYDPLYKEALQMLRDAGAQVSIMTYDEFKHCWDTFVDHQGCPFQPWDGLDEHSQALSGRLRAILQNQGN
The target in assay [9] is T5, Carboxy-terminal domain RNA polymerase II polypeptide A small phosphatase 1 (Homo sapiens, UniProt Q9GZU7).
T5 sequence (Q9GZU7 whole entry): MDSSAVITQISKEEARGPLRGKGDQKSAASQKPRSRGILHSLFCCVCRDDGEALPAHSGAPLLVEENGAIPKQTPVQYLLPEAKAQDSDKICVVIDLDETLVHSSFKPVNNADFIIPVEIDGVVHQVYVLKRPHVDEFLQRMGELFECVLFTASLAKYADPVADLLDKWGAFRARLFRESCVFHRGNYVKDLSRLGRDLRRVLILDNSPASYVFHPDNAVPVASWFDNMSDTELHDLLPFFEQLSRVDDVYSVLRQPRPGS
The experiment in a line: CTDSP1 inhibitors, concentration-response, biochemical, absorbance readout, ultra-high-throughput screen actives (AID 540297). It counts as functional.

The nature of assay [10]: Counterscreen for IDE inhibitors: Luminescence-based cell-based high throughput dose response assay to identify compounds that are cytotoxic to HEK cells. [Related pubchem assays: 434962 (Primary screen (IDE inhibitors in singlicate)), 449730 (Counterscreen (Cytotoxicity in triplicate)), 435028 (Confirmation (IDE inhibitors in triplicate)) …. It counts as functional. The following applies: HEK293.

The target of another assay is T6, Insulin-degrading enzyme (Homo sapiens, UniProt P14735).
T6 sequence (P14735 whole entry): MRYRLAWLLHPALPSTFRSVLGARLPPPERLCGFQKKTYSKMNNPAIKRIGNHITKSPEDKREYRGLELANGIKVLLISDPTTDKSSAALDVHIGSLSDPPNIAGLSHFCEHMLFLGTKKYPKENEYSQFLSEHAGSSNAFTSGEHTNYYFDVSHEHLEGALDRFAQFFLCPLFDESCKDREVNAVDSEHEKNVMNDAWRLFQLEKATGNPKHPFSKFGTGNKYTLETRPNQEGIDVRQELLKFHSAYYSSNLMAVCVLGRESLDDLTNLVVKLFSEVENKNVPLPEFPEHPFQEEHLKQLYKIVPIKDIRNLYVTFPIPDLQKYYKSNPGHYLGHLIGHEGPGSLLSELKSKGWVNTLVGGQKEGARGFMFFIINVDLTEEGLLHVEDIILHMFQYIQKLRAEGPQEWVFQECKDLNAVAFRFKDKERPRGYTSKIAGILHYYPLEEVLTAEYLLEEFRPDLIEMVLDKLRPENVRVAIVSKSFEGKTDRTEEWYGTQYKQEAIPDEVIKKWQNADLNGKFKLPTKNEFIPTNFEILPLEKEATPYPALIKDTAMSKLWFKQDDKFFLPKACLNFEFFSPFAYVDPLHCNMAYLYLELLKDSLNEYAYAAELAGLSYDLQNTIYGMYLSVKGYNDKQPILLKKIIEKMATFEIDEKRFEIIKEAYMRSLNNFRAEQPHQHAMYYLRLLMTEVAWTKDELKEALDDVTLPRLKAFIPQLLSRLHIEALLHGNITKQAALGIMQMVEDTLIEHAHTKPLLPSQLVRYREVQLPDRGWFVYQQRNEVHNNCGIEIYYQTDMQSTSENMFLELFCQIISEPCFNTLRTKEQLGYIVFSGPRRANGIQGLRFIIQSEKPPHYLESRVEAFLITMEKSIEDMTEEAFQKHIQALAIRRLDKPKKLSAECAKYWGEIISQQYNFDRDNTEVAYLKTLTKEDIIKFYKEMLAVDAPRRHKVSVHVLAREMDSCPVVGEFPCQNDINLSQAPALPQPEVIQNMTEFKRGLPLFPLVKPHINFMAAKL
The experiment in a line: Dose Response: Fluorescence polarization-based cell-based high throughput dose response assay for inhibitors of insulin-degrading enzyme (IDE). [Related pubchem assays: 434962 (Primary screen (IDE inhibitors in singlicate)), 449730 (Counterscreen (Cytotoxicity in triplicate)), 435028 (Confirmation (IDE inhibitors in triplicate)), 434984 (Summary …. It counts as functional.

Assay [11] in a line: HEK-293T cell viability reduction – luminescence, B-cell screen hits, cytotoxicity control for BCR NF-kB inhibitor project, dose response (AID 489021).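 Note: HEK-293T cells carrying an NF-kB luciferase reporter; cells exposed to compound for about 14 hours before viability readout.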 It counts as functional, cell-based.
For the next assay, the target named is T7, Aminopeptidase N (Plasmodium falciparum FcB1/Columbia, UniProt O96935).
T7 sequence (O96935 whole entry): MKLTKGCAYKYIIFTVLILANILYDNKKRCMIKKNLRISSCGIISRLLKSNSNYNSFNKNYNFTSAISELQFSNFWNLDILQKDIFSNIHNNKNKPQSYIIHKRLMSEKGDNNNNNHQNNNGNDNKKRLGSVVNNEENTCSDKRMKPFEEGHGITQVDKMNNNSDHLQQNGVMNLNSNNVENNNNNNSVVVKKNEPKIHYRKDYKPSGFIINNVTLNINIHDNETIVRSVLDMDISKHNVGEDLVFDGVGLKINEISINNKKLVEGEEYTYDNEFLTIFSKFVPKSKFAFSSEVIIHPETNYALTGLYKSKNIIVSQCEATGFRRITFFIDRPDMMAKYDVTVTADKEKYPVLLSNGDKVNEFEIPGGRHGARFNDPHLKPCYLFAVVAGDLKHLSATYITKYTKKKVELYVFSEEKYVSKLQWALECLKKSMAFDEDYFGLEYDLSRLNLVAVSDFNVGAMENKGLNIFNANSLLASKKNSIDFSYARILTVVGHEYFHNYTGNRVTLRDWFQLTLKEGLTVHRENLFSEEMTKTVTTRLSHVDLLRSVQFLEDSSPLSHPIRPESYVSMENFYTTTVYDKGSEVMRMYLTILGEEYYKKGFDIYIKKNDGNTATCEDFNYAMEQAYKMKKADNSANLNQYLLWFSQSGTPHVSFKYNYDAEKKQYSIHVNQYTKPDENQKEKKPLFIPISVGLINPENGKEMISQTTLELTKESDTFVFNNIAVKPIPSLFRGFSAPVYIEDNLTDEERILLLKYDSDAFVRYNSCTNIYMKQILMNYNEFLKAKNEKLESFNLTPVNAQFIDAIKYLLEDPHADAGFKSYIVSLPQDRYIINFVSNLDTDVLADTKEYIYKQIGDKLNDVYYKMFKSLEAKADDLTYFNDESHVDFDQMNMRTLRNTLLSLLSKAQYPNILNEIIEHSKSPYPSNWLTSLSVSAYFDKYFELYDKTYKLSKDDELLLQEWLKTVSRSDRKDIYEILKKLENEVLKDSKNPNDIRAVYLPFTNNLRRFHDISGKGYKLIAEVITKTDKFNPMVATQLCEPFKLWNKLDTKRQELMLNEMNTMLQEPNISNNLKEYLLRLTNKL
The assay is described as follows: malaria alanyl aminopeptidase activity blockers – biochemical, fluorogenic H-Leu-NHMec substrate, 1536-well (AID 1445). Also noted: species or system Plasmodium falciparum 3D7, 3D7.

Active and inactive are the calls of the source.

Neurotensin receptor type 1, sequence (P30989 whole entry): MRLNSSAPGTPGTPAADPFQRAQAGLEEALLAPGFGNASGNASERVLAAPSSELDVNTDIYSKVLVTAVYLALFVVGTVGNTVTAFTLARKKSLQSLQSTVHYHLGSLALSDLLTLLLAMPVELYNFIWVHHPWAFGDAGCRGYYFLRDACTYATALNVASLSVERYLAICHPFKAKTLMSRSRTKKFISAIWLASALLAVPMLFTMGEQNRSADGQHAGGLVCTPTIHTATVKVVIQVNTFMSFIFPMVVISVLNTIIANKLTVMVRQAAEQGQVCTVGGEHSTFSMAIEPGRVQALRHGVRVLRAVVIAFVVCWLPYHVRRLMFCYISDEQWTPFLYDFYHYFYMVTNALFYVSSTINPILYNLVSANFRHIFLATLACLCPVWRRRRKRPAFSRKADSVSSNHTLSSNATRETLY
Peroxisome proliferator-activated receptor gamma/Nuclear receptor corepressor 2, sequence (P37231 whole entry): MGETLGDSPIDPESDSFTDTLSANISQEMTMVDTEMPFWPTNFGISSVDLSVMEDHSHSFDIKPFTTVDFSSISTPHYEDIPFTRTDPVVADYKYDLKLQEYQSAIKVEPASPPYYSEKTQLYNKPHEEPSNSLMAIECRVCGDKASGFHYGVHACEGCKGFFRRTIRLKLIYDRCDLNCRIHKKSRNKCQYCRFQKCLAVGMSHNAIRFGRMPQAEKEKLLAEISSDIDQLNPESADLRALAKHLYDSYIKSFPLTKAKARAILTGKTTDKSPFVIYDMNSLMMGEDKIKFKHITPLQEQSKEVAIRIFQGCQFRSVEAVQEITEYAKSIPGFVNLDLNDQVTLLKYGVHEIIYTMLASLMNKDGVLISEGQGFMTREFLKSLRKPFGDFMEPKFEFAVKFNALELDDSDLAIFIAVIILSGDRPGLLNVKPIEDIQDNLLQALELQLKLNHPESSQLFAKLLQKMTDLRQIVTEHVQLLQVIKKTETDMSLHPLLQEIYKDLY
Peroxisome proliferator-activated receptor gamma/Nuclear receptor corepressor 2, sequence (Q9Y618 whole entry): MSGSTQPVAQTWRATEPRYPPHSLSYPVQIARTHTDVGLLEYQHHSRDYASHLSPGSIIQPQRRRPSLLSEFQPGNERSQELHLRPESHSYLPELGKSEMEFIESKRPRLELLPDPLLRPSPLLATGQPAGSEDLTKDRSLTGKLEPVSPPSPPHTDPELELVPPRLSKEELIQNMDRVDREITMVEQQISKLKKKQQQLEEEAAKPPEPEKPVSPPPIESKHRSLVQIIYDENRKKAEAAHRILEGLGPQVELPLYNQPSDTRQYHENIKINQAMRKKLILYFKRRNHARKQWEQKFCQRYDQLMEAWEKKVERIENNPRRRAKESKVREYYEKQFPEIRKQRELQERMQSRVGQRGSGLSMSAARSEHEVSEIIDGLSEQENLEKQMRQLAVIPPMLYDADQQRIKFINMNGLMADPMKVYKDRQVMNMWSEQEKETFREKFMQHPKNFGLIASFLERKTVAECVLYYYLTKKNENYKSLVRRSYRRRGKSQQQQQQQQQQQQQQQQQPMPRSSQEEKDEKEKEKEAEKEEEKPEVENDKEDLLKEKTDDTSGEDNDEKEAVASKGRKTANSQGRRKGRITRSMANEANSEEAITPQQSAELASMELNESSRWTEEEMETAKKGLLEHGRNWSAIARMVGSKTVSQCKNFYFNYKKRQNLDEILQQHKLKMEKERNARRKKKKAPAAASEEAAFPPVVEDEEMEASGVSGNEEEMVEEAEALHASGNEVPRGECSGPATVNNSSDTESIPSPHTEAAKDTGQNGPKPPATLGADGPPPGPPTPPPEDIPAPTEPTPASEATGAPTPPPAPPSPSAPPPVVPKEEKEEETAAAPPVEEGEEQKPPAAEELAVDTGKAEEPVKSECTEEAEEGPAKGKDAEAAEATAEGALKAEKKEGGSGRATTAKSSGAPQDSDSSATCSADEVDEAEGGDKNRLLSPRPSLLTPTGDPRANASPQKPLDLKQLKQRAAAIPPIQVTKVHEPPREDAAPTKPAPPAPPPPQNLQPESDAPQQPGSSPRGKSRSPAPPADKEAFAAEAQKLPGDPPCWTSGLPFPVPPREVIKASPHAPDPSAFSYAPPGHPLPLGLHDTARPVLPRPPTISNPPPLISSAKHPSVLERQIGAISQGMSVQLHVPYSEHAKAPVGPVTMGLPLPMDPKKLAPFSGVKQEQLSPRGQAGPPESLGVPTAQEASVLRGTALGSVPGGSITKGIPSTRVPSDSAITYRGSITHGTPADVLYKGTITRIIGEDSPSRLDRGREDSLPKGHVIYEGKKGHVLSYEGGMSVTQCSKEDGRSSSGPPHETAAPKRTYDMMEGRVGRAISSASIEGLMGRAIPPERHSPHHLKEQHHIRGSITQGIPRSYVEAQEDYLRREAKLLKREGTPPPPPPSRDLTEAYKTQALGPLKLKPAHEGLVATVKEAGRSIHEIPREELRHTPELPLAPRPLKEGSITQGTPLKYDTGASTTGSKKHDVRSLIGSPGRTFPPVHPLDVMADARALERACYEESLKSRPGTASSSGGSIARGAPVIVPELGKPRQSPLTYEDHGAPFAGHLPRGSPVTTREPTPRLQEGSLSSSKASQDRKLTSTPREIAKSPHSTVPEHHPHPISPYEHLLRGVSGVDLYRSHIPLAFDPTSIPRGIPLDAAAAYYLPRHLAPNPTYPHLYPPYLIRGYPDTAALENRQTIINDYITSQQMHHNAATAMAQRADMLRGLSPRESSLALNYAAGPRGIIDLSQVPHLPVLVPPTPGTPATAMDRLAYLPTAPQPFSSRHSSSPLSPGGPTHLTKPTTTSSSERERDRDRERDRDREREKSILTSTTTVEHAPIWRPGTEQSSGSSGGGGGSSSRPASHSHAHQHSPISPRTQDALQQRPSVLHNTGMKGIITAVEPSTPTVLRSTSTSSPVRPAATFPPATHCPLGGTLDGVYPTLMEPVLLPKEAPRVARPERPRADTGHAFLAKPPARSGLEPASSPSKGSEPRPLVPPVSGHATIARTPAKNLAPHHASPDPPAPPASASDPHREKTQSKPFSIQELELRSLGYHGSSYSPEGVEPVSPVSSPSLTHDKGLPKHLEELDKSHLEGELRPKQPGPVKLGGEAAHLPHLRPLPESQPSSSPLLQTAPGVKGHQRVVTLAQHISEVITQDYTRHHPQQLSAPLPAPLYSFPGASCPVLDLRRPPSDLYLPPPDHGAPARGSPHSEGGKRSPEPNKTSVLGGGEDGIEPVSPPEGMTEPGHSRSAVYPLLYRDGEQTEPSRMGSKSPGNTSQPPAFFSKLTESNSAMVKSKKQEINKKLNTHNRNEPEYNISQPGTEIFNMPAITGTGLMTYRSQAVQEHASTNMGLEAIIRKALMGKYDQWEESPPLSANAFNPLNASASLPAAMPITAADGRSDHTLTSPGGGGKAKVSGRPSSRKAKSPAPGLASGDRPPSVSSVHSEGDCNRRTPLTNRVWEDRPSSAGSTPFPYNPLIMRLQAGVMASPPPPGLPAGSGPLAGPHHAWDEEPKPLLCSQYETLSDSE
Photoreceptor-specific nuclear receptor, sequence (Q9Y5X4 whole entry): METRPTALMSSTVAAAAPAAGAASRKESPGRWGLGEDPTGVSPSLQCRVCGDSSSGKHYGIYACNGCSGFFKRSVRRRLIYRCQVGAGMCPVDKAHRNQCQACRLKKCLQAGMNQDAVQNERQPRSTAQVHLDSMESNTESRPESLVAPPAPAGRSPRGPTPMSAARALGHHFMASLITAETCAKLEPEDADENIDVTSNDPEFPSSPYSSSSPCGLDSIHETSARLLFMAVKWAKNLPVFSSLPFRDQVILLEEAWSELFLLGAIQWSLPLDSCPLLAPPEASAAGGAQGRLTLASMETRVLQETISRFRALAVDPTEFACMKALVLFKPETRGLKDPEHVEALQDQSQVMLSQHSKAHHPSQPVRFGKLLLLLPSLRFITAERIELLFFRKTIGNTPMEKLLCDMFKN

For `Cc1nn(CCc2nnn[nH]2)c2nc(-c3ccc(Br)cc3)cc(C(F)(F)F)c12`, the values for the IC50 (in assay [1]; in assay [2]; on Coagulation factor XII) were > 39.8 µM (not active), 4.7 µM (active) and > 50 µM (inactive), respectively.

As to `COc1ccc(OC)c(N/C=C2/C(=O)NC(=S)N(Cc3ccccc3)C2=O)c1`, the EC50 in assay [3] is > 300 µM (not active); in assay [4], > 150 µM (not active); in assay [5] it was > 300 µM (inconclusive); on Streptokinase A, > 150 µM (not active); in the assay on Streptococcus, > 150 µM (not active); in [6] it was 38.3 µM (inactive).

As for `C=CCc1cccc2cc(C(=O)Nc3ccc(CC(=O)O)cc3)c(=O)oc12`, the IC50 in assay [7] was > 20 µM (inactive).

Turning to `CC(C)[N+]12CCC(CC1)C(C(O)(c1ccccc1)c1ccccc1)C2` (centres undefined), the IC50 is 2.71 µM (active) in assay [8] and 8.96 µM (active) in assay [9].

On to `CCOc1ccc(C(=O)Nc2nnc(NC(=S)Nc3ccccc3)s2)cc1`, for which the EC50 in assay [6] was 9.68 µM (active).

With `CCOC(=O)N1CCN(c2[nH]cnc3c4cc(OC)ccc4nc2-3)CC1`, the 50% inhibitory concentration (IC50) was 18.4 µM (not active) in [10], 9.15 µM (active) on Insulin-degrading enzyme and 56.9 µM (inactive) in [11].

For the molecule `Cc1cccc(N2C(=O)/C(=C/Nc3ccccc3-c3nnc(S)nc3O)c3ccccc3C2=O)n1`, the IC50 on Aminopeptidase N is 60.4 µM (active); in assay [10], > 55.7 µM (not active); against Insulin-degrading enzyme, 12.2 µM (not active).

Values taken from ChEMBL document CHEMBL1201862, “PubChem BioAssay data set” (2004).
